Values of other authors, collected in patent publication US6458923B1, “Modified position (7) bradykinin antagonist peptides” (Scios Inc., priority 1991, dated 2002).
No end group written: not given here.

Assays:
pulmonary kininase = settings: anesthetized rat; intra-aortic vs intravenous administration

## RPPGFSPFR [Bradykinin, Arg Pro Pro Gly Phe Ser Pro Phe Arg]
other
  half life in the systemic circulation: less than 30 seconds
Pulmonary kininase
  destruction on a single passage through the pulmonary circulation: 98-99%
